Measured values published in PMC5080441, “A direct-sensing galactose chemoreceptor recently evolved in invasive strains of Campylobacter jejuni” (Nature Communications, 2016).

Molecular target: Tlp11 (CcrG, Campylobacter ChemoReceptor for Galactose)
Experiment: SPR (Biacore); STD-NMR
Format: binding, Campylobacter jejuni

Q: Which Kd does the source give for OC[C@H]1OC(O)[C@H](O)[C@@H](O)[C@H]1O (stereo partly shown) [galactose] here?
A: 17 µM
